From PubChem BioAssay AID328 (DTP/NCI, 2004)
Toxic doses and inconclusive results are not listed. Rule for the calls: active = survival T/C of 150% or more; inactive = T/C below 125% in these data.

Test system: BDF1 mice, P388 leukemia ip, median survival T/C
Assay: NCI In Vivo Anticancer Drug Screen. Data for tumor model P388 Leukemia (intraperitoneal) in B6D2F1 (BDF1) mice
Conditions: endpoint: median survival time, higher = longer survival
Summary of the method: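 Reported as T/C, where T is the survival measurement in dosed animals and C the same measurement in vehicle controls.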

[1] = dose: 50.0 mg/kg/injection, schedule: Q01DX009 (ip), vehicle: saline with Tween-80
[2] = dose: 100.0 mg/kg/injection, schedule: Q01DX009 (ip), vehicle: saline with Tween-80
[3] = dose: 200.0 mg/kg/injection, schedule: Q01DX009 (ip), vehicle: saline with Tween-80

Measured: T/C

NN(C(=O)c1ccccc1)c1ccccc1
inactive: dose: 12.5 mg/kg/injection, schedule: Q04DX003 (ip), vehicle: Klucel (hydroxypropylcellulose) (HPC) 100 % of control | dose: 25.0 mg/kg/injection, schedule: Q01DX009 (ip), vehicle: Klucel (hydroxypropylcellulose) (HPC) 110 % of control | dose: 25.0 mg/kg/injection, schedule: Q04DX003 (ip), vehicle: Klucel (hydroxypropylcellulose) (HPC) 100 % of control | dose: 50.0 mg/kg/injection, schedule: Q01DX009 (ip), vehicle: Klucel (hydroxypropylcellulose) (HPC) 100 % of control | dose: 50.0 mg/kg/injection, schedule: Q04DX003 (ip), vehicle: Klucel (hydroxypropylcellulose) (HPC) 104 % of control | dose: 75.0 mg/kg/injection, schedule: Q04DX003 (ip), vehicle: Klucel (hydroxypropylcellulose) (HPC) 104 % of control | dose: 115.0 mg/kg/injection, schedule: Q04DX003 (ip), vehicle: Klucel (hydroxypropylcellulose) (HPC) 104 % of control | dose: 170.0 mg/kg/injection, schedule: Q04DX003 (ip), vehicle: Klucel (hydroxypropylcellulose) (HPC) 109 % of control | dose: 255.0 mg/kg/injection, schedule: Q04DX003 (ip), vehicle: Klucel (hydroxypropylcellulose) (HPC) 105 % of control | dose: 385.0 mg/kg/injection, schedule: Q04DX003 (ip), vehicle: Klucel (hydroxypropylcellulose) (HPC) 110 % of control

COc1cccc(C(=O)O)c1OS(=O)(=O)c1ccc(C)cc1
inactive: dose: 25.0 mg/kg/injection, schedule: Q01DX009 (ip), vehicle: other 108 % of control | dose: 50.0 mg/kg/injection, schedule: Q01DX009 (ip), vehicle: other 100 % of control | dose: 100.0 mg/kg/injection, schedule: Q01DX009 (ip), vehicle: other 100 % of control | dose: 200.0 mg/kg/injection, schedule: Q01DX009 (ip), vehicle: other 101 % of control | dose: 400.0 mg/kg/injection, schedule: Q01DX009 (ip), vehicle: other 103 % of control

Cc1cc(O)c2c(c1O)C(=O)c1ccccc1C2=O
inactive: dose: 100.0 mg/kg/injection, schedule: Q04DX003 (ip), vehicle: saline 91 % of control | dose: 200.0 mg/kg/injection, schedule: Q04DX003 (ip), vehicle: saline 95 % of control | dose: 400.0 mg/kg/injection, schedule: Q04DX003 (ip), vehicle: saline 95 % of control

Clc1ccc(CN2CCCN(Cc3ccc(Cl)c(Cl)c3)S2)cc1Cl
inactive: [1] 101 % of control | [2] 97 % of control | [3] 90 % of control

C1=Cc2c3c(c4c(c2C1)C=CC4)C=CC3
inactive: [1] 91 % of control | [2] 93 % of control | [3] 95 % of control

COc1ccc(/C=N/n2c(C)cc(C)c(C#N)c2=O)c(OC)c1OC
inactive: [2] 100 % of control | dose: 100.0 mg/kg/injection, schedule: Q04DX003 (ip), vehicle: Klucel (hydroxypropylcellulose) (HPC) 115 % of control | [3] 86 % of control | dose: 200.0 mg/kg/injection, schedule: Q04DX003 (ip), vehicle: Klucel (hydroxypropylcellulose) (HPC) 100 % of control | dose: 400.0 mg/kg/injection, schedule: Q01DX009 (ip), vehicle: saline with Tween-80 113 % of control | dose: 400.0 mg/kg/injection, schedule: Q04DX003 (ip), vehicle: Klucel (hydroxypropylcellulose) (HPC) 100 % of control

O=C1OC(=O)c2c(Br)c(Br)c(Br)c(Br)c21
inactive: dose: 25.0 mg/kg/injection, schedule: Q01DX009 (ip), vehicle: saline with Tween-80 109 % of control | dose: 56.25 mg/kg/injection, schedule: Q01DX009 (ip), vehicle: saline with Tween-80 90 % of control | dose: 75.0 mg/kg/injection, schedule: Q01DX009 (ip), vehicle: saline with Tween-80 113 % of control | dose: 150.0 mg/kg/injection, schedule: Q01DX009 (ip), vehicle: saline with Tween-80 109 % of control

N#Cc1c(N)sc2c1CCCC2
inactive: dose: 100.0 mg/kg/injection, schedule: Q01DX009 (ip), vehicle: saline 109 % of control | dose: 200.0 mg/kg/injection, schedule: Q01DX009 (ip), vehicle: saline 109 % of control | dose: 400.0 mg/kg/injection, schedule: Q01DX009 (ip), vehicle: saline 104 % of control

CC(C)(O)c1ccccc1S(=O)c1ccc(Cl)cc1 (stereo not drawn)
inactive: [1] 100 % of control | [2] 101 % of control | [3] 99 % of control

CCOc1cc(C=Nc2cccc(C(F)(F)F)c2)ccc1O
inactive: dose: 100.0 mg/kg/injection, schedule: Q04DX003 (ip), vehicle: other 95 % of control | dose: 400.0 mg/kg/injection, schedule: Q04DX003 (ip), vehicle: other 95 % of control

Nc1nc(Cl)c(C=O)c(Cl)n1
active: [1] 241 % of control
